Consider one compound from patent publication EP4467137A1, “TREATMENT OF FRONTOTEMPORAL DEMENTIA OR FRONTOTEMPORAL LOBAR DEMENTIA” (Universidad Autónoma de Madrid, priority 2023, dated 2024).

Data set [1] in a line: In vitro blood-brain barrier permeation assay (PAMPA-BBB). In kind it is in vitro ADME. The text has this:
The in vitro blood-brain barrier permeation assay (PAMPA-BBB) was used for predicting the brain penetration of compounds, following a described method [Herrera-Arozamena, Clara et al. "Resveratrol-Based MTDLs to Stimulate Defensive and Regenerative Pathways and Block Early Events in Neurodegenerative Cascades." Journal of medicinal chemistry vol. 65,6 (2022): 4727-4751. doi:10.1021/acs.jmedchem.1c01883]. The results are given as the mean ± SD. In each experiment, 11 quality control standards of known BBB permeability were included to validate the analysis set.
(PAMPA measures passive passage across an artificial lipid membrane.)

A short description of data set [2]: Oxygen Radical Absorbance Capacity Assay (ORAC). The data set is classed as physicochemical. To be noted: ORAC > 1.0 is a better ROS scavenger than trolox. How it is done:
The Oxygen Radical Absorbance Capacity Assay (ORAC) was performed as described [Herrera-Arozamena, Clara et al. "Resveratrol-Based MTDLs to Stimulate Defensive and Regenerative Pathways and Block Early Events in Neurodegenerative Cascades." Journal of medicinal chemistry vol. 65,6 (2022): 4727-4751. doi:10.1021/acs.jmedchem.1c01883].

In a further data set the test system is hyperphosphorylated tau. As to the kind of experiment: In vivo hTauP301L model: hippocampal hyperphosphorylated tau by AT8 and AT180 immunofluorescence. Further details: species or system mouse. The settings on record: 35 days. On the procedure: In vivo hTau301L model was induced by stereotaxic injection of AAV-hTauP301L (AAV-hTau) particles as described in [Luengo, Enrique et al. "Implication of type 4 NADPH oxidase (NOX4) in tauopathy." Redox biology vol. 49 (2022): 102210. doi:10.1016/j.redox.2021.102210 ]. Control animals were injected with AAV-GFP. Evaluation of hyperphosphorylated tau in sarkosyl soluble and insoluble fractions; microgliosis; AT8 and AT180 by immunofluorescence; and cognitive test were performed as described previously [Luengo, Enrique et al. "Implication of type 4 NADPH oxidase (NOX4) in tauopathy." Redox biology vol. 49 (2022): 102210. doi:10.1016/j.redox.2021.102210 ].
Oral administration of Compound 1 at different dosages (20 mg·kg^-1 and 50 mg·kg^-1) was administered embedded in gelatine. The compound was given in a mixture of 10 % gelatine from porcine skin and 10 % sucralose in water, heated in a microwave oven. Before Compound 1 addition, gelatine mixture was left at RT. Afterwards, the compound was added, evenly mixed and plated 1 mL·well^-1 in a P24 plate. Before AAV injection, mice were trained to eat the gelatines by giving them one gelatine (without compound) per day for 4 consecutive days. After AAV injection, mice were treated once a day with control or Compound 1 gelatines for 35 consecutive days. This approach was followed in adult (3-4 months old) and aged (16-18 months old) mice injected with AAV-GFP or AAV-hTauP301L.
Example 2.5. Compound 1 ameliorates hTauP301L induced FTD and cognitive decline in adult (3-4 months old) mice. FTD was generated in adult male and female C57BL/6J mice (3-4 months old) by bihippocampal injection of AAV-hTau particles containing the P301L mutation. Mice were treated orally once a day with a single dose of 20 or 50 mg/kg of Compound 1 formulated in gelatines the day after stereotaxic delivery of AAVs (GFP or TauP301L, to controls and FTD, respectively). After 35 days treatment, hyperphosphorylated tau levels were evaluated by immunofluorescence and by WB in soluble and insoluble in sarkosyl fractions. Also, behavioural tests were conducted to study the cognition status of the mice.
Hyperphosphorylated tau levels measured with the antibodies AT8 (p-Ser202/p-Thr205) and AT180 (p-Thr231) were analysed by immunofluorescence in fixed postmortem brain slices of treated mice (Figure 7A).
Example 2.6. Compound 1 ameliorates hTauP301L induced FTD and cognitive decline in aged (16-18 months old) mouse. To include the aging effect in the FTD model, the previous experiments were replicated in male and female 16-18 months old C57/BL6J mice.

The mark [3] stands for this setting: adult (3-4 months old) mice, 50 mg/kg/day oral.
[4] abbreviates: aged (16-18 months old) mice, 50 mg/kg oral.

`COc1ccc2c(c1)CC(c1c[nH]c3ccc(OC)cc13)N2` (stereo not shown) [Compound 1, 5-Methoxy-3-(5-methoxyindolin-2-yl)-1H-indole]: the “PAMPA-BBB predicted brain penetration” value in data set [1] is “cns+”. The Papp in data set [1] (PAMPA, permeation rate, mean ± SD, read-out: PAMPA-BBB Pe) worked out at 12.9 ± 0.9 ×10⁻⁶ cm/s. Moreover, the “ORAC (trolox equiv.)” value in data set [2] was found to be 2.3 ± 0.3 trolox equiv. In addition, in the data set on hyperphosphorylated tau (setting [3]), the “AT8 fluorescence in hippocampus (DG, CA1 and CA3)” value was “significantly reduced”; the “AT180 fluorescence in hippocampus (DG, CA1 and CA3)” value is “significantly reduced”. Moreover, in the data set on hyperphosphorylated tau (setting [4]), the “hyperphosphorylated tau levels by AT8 in DG, CA3 and CA1” value is given as “reduced”; the “hyperphosphorylated tau levels by AT180 in DG, CA3 and CA1” value is on record as “reduced”.
